Molecules are shown by their SMILES.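 Results reflect a 48-hour exposure of cells in 96-well plates to compound at five concentrations. GI50 marks 50% less growth. The concentration for full growth arrest is given as TGI.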

In one experiment the test system is SF-268 CNS. The experiment can be described thus: growth of human tumour cells (NCI), 48 h.
`Cn1c2c(c3ccccc31)CCN1C(=O)C34CCCC3CC21S4` (centres undefined) showed a TGI above 100 µM.
Same read-out and setting: next, `Clc1ccc(OCc2nnc(COc3ccc(OCc4nnc(COc5ccc(Cl)cc5Cl)o4)c(Cl)c3)o2)c(Cl)c1`: 64.3 µM.
Consider `O=c1ccn(-c2ccccn2)c(=O)n1-c1ccccn1`, for which the TGI is above 100 µM.
Still for that read-out and setting: under `COC(=O)C1=C(C(=O)OC)SC(=C2SC3=C(SC(=C4SCCS4)S3)S2)S1` stands above 100 µM.
Still for that read-out and setting: under `CCC(=O)Nc1ccc(NS(=O)(=O)c2ccc(Cl)cc2)cc1` stands above 100 µM; under `c1c(N2CCOCC2)ssc1=[N+]1CCOCC1`, above 100 µM.
Still for that read-out and setting: under `CC(C)(C)c1cc(/C=C2/NC(=O)NC2=O)cc(C(C)(C)C)c1O` stands 28.8 µM; under `COc1cccc(N2C(=O)CS(=O)(=O)C2c2cccc(Oc3ccccc3)c2)c1` (centres undefined), above 100 µM; under `CCCO/N=[N+](\[O-])N(CC)CC`, above 100 µM.
As for `Cc1cnc2[nH]c(-c3cccc(F)c3)cc(=O)c2c1`, the TGI is above 100 µM.
The same measure, in the same setting: under `CC(=O)N(C)c1ccc(Nc2ccnc3ccc4nn(C)nc4c23)cc1` stands above 100 µM; under `CN(C)CCNc1c([N+](=O)[O-])sc2ccc(Cl)cc12`, above 100 µM.
The same measure, in the same setting: next, `CCOC(=O)Cn1nnc2cc(Nc3c(C)[n+]([O-])c4cc(F)c(OCC)cc4[n+]3[O-])ccc21`: above 100 µM.
The same measure, in the same setting: next, `S=c1[nH]nc(Cn2c3ccc(Br)cc3c3nc4ccccc4nc32)n1C1CCCCC1`: above 100 µM; `COc1ccc2c(c1)-c1c(c3cc(OC)ccc3n1CCN(C)C)CC2`: 37.3 µM.
As for `Oc1c(OCc2nnc(CCCCCCCCc3nnc(COc4ccc5ccccc5c4O)o3)o2)ccc2ccccc12`, the TGI is above 100 µM.
For the compound `CCCCCCCCCCCCNC(=O)CCC(NC(=O)c1ccc(N(C)Cc2cnc3nc(N)nc(N)c3n2)cc1)C(=O)NCCCCCCCCCCCC` (centres undefined), the TGI is above 100 µM.
On to `O=P(OCc1ccccc1)(OCc1ccccc1)C(O)/C=C/c1ccccc1` (centres undefined), for which the TGI was found to be 42.8 µM.
Still for that read-out and setting: under `NCCN(CCN(C(=O)Nc1ccccc1)c1ccccc1)C(=O)Nc1ccccc1` stands 49 µM.
On the same count and under the same terms, under `C[C@H](c1ccccc1)N1C(=O)[C@@H](OCc2ccccc2)[C@H]1[C@H](COC(=O)COCc1ccccc1)OCc1ccccc1` stands above 100 µM; under `O=C1CC(c2ccccc2Cl)C2(C(=O)NC(=O)NC2=O)C(c2ccccc2Cl)C1` (centres undefined), above 100 µM.
With `CCN(CCCCCCCCCCN1CC(=O)N(CCCCCCCCCCN(CC)Cc2ccccc2OC)CC1=O)Cc1ccccc1OC`, the GI50 is 1.49 µM and the TGI is 2.96 µM.
As for `O=C1N/N=C\c2ccc(cc2)OCc2cccc(n2)COc2ccc(cc2)/C=N\NC1=O`, the TGI is above 25 µM.
Same read-out and setting: next, `CC1CCc2sc3nc4n(c(=O)c3c2C1)CC(C)S4` (centres undefined): above 100 µM.
Still for that read-out and setting: under `N#Cc1nc(CCCN2C(=O)c3ccccc3C2=O)oc1N` stands above 100 µM; under `CC(=O)OC1CC2(O)C(CCC3(C)C(c4ccc(=O)oc4)CCC32O)C2(C)C1=CC(O)C1OC12` (centres undefined), 0.0874 µM; under `CN(C)CCCNc1cc(O)c2c(c1O)C(=O)c1ccccc1C2=O`, 36.4 µM.

A further experiment relates to UACC-62 melanoma. Kind of experiment: growth of human tumour cells (NCI), 48 h.
Regarding `Cn1c2c(c3ccccc31)CCN1C(=O)C34CCCC3CC21S4` (centres undefined), the TGI was above 100 µM.
With `Clc1ccc(OCc2nnc(COc3ccc(OCc4nnc(COc5ccc(Cl)cc5Cl)o4)c(Cl)c3)o2)c(Cl)c1`, the TGI was above 100 µM.
Same read-out and setting: next, `O=C1NC(=S)NC(=O)C1C(c1ccc(Cl)cc1)C1C(=O)NC(=S)NC1=O`: above 100 µM; `COC(=O)C1=C(C(=O)OC)SC(=C2SC3=C(SC(=C4SCCS4)S3)S2)S1`: above 100 µM.
`CCC(=O)Nc1ccc(NS(=O)(=O)c2ccc(Cl)cc2)cc1`: the TGI is above 100 µM.
The same measure, in the same setting: next, `c1c(N2CCOCC2)ssc1=[N+]1CCOCC1`: above 100 µM; `CC(C)(C)c1cc(/C=C2/NC(=O)NC2=O)cc(C(C)(C)C)c1O`: 30.5 µM.
The compound `COc1cccc(N2C(=O)CS(=O)(=O)C2c2cccc(Oc3ccccc3)c2)c1` (centres undefined) gave a TGI of 24.7 µM.
`CCCO/N=[N+](\[O-])N(CC)CC` gave a TGI above 100 µM.
On the same count and under the same terms, next, `Cc1cnc2[nH]c(-c3cccc(F)c3)cc(=O)c2c1`: above 100 µM.
Same read-out and setting: under `CC(=O)N(C)c1ccc(Nc2ccnc3ccc4nn(C)nc4c23)cc1` stands 37 µM.
Still for that read-out and setting: under `CN(C)CCNc1c([N+](=O)[O-])sc2ccc(Cl)cc12` stands 62.7 µM.
Turning to `S=c1[nH]nc(Cn2c3ccc(Br)cc3c3nc4ccccc4nc32)n1C1CCCCC1`, the TGI is 41.1 µM.
Consider `COc1ccc2c(c1)-c1c(c3cc(OC)ccc3n1CCN(C)C)CC2`, for which the TGI was found to be 22.8 µM.
On the same count and under the same terms, next, `Oc1c(OCc2nnc(CCCCCCCCc3nnc(COc4ccc5ccccc5c4O)o3)o2)ccc2ccccc12`: above 100 µM; `CCCCCCCCCCCCNC(=O)CCC(NC(=O)c1ccc(N(C)Cc2cnc3nc(N)nc(N)c3n2)cc1)C(=O)NCCCCCCCCCCCC` (centres undefined): above 100 µM.
On the same count and under the same terms, next, `O=P(OCc1ccccc1)(OCc1ccccc1)C(O)/C=C/c1ccccc1` (centres undefined): 31.4 µM.
The same measure, in the same setting: under `NCCN(CCN(C(=O)Nc1ccccc1)c1ccccc1)C(=O)Nc1ccccc1` stands 35.3 µM; under `C[C@H](c1ccccc1)N1C(=O)[C@@H](OCc2ccccc2)[C@H]1[C@H](COC(=O)COCc1ccccc1)OCc1ccccc1`, above 100 µM.
Turning to `O=C1CC(c2ccccc2Cl)C2(C(=O)NC(=O)NC2=O)C(c2ccccc2Cl)C1` (centres undefined), the TGI is above 100 µM.
With `CCN(CCCCCCCCCCN1CC(=O)N(CCCCCCCCCCN(CC)Cc2ccccc2OC)CC1=O)Cc1ccccc1OC`, the GI50 was 2.06 µM and the TGI amounted to 3.89 µM.
On to `O=C1N/N=C\c2ccc(cc2)OCc2cccc(n2)COc2ccc(cc2)/C=N\NC1=O`, for which the TGI is above 25 µM.
`CC1CCc2sc3nc4n(c(=O)c3c2C1)CC(C)S4` (centres undefined) gave a TGI of 38.7 µM.
On the same count and under the same terms, next, `CC(=O)OC1CC2(O)C(CCC3(C)C(c4ccc(=O)oc4)CCC32O)C2(C)C1=CC(O)C1OC12` (centres undefined): 0.117 µM.
On the same count and under the same terms, next, `CN(C)CCCNc1cc(O)c2c(c1O)C(=O)c1ccccc1C2=O`: 35.3 µM; `O=c1c(-c2ccccc2)c(SCCN2CCCCCC2)n(-c2ccccc2)c(=S)n1-c1ccccc1`: above 100 µM.

A further experiment concerns SNB-19 CNS. Kind of experiment: growth of human tumour cells (NCI), 48 h.
The compound `Cn1c2c(c3ccccc31)CCN1C(=O)C34CCCC3CC21S4` (centres undefined) showed a TGI above 100 µM.
On the same count and under the same terms, next, `Clc1ccc(OCc2nnc(COc3ccc(OCc4nnc(COc5ccc(Cl)cc5Cl)o4)c(Cl)c3)o2)c(Cl)c1`: above 100 µM.
Turning to `O=c1ccn(-c2ccccn2)c(=O)n1-c1ccccn1`, the TGI was above 100 µM.
The same measure, in the same setting: next, `O=C1NC(=S)NC(=O)C1C(c1ccc(Cl)cc1)C1C(=O)NC(=S)NC1=O`: above 100 µM.
Consider `COC(=O)C1=C(C(=O)OC)SC(=C2SC3=C(SC(=C4SCCS4)S3)S2)S1`, for which the TGI was above 100 µM.
Same read-out and setting: under `CCC(=O)Nc1ccc(NS(=O)(=O)c2ccc(Cl)cc2)cc1` stands above 100 µM; under `c1c(N2CCOCC2)ssc1=[N+]1CCOCC1`, above 100 µM; under `COc1cccc(N2C(=O)CS(=O)(=O)C2c2cccc(Oc3ccccc3)c2)c1` (centres undefined), above 100 µM.
The same measure, in the same setting: under `CCCO/N=[N+](\[O-])N(CC)CC` stands above 100 µM.

Values taken from PubChem BioAssay (NCI).
